The results in this text go back to patent US20240398784A1, “C-LINKED ISOQUINOLINE AMIDES AS LRRK2 INHIBITORS, PHARMACEUTICAL COMPOSITIONS, AND USES THEREOF” (Merck Sharp & Dohme LLC, priority 2021, published 2024).

The target of the assay is LRRK2 G2019S (Homo sapiens, UniProt Q5S007, G2019S). Kind of assay: LRRK2 G2019S Km ATP LanthaScreen assay. The class given is biochemical. The following applies: read-out: LRRK2 pIC50 (converted).
Chain of LRRK2 G2019S (Q5S007 whole entry G2019S): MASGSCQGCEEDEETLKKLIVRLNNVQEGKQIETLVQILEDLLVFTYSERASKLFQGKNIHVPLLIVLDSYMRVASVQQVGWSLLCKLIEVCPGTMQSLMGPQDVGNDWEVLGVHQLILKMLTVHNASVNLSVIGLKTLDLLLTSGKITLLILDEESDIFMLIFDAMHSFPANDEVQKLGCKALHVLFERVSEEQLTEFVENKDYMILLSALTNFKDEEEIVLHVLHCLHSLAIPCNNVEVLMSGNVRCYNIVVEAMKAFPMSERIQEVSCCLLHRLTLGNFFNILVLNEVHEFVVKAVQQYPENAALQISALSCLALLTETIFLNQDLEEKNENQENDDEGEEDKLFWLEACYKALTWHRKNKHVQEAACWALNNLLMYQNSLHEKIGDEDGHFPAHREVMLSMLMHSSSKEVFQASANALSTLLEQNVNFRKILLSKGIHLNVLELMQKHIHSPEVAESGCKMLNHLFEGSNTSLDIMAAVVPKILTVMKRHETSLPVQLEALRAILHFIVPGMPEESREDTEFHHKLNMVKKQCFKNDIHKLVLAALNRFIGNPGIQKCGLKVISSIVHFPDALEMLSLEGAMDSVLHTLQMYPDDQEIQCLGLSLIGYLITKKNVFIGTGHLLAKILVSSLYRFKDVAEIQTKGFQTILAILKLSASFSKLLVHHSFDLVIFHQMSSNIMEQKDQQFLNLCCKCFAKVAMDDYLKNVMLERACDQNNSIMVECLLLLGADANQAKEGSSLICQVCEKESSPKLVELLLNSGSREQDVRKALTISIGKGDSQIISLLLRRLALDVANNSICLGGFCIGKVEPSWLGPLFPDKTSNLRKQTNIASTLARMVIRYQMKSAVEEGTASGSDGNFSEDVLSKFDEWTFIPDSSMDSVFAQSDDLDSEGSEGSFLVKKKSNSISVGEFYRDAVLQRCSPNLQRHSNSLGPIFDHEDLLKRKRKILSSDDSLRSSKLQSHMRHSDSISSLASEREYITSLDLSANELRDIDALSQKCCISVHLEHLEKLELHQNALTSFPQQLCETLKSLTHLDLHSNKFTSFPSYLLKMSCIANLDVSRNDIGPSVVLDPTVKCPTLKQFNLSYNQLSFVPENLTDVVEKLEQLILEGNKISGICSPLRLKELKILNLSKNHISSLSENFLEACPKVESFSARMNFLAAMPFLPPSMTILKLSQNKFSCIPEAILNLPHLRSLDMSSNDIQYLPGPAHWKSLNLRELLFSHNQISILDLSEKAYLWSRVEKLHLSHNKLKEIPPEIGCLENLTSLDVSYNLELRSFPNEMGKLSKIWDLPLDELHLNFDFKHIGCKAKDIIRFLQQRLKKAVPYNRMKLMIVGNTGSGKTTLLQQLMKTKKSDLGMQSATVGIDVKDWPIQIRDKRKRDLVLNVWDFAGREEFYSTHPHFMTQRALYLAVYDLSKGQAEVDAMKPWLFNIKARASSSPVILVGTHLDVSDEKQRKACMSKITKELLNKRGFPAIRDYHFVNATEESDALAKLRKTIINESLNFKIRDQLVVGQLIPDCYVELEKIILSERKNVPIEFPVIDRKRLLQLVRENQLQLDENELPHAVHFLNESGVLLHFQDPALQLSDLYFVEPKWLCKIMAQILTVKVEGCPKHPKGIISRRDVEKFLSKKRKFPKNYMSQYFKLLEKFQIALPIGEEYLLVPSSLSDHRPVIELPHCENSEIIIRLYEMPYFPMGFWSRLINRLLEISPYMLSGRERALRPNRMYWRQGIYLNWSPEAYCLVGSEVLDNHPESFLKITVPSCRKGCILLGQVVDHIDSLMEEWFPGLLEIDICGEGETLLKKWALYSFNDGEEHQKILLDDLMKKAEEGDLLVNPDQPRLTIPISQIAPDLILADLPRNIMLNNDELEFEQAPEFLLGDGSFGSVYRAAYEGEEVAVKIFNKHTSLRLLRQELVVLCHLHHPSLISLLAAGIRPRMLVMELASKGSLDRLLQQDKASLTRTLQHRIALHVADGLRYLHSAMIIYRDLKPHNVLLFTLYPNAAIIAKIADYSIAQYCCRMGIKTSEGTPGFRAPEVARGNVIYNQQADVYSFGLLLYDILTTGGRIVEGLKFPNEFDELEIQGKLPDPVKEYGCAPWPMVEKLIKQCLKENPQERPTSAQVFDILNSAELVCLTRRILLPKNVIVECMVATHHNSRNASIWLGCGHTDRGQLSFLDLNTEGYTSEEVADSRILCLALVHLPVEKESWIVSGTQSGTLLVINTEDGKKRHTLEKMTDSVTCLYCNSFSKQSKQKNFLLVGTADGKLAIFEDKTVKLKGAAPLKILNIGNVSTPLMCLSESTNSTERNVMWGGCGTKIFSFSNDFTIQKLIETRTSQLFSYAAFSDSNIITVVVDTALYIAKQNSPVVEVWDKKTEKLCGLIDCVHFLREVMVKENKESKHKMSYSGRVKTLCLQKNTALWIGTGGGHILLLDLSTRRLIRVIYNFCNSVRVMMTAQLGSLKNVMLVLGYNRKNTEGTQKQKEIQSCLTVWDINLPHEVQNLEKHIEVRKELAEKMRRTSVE
In the case of `CC1(N2CCC(c3cc4cc(NC(=O)C5CC56CCOCC6)ncc4cc3Cl)CC2)CCOCC1F` (single isomer, unassigned) [Ex-12.2, N-(7-chloro-6-(1-((3R,4R or 3S,4S)-3-fluoro-4-methyltetrahydro-2H-pyran-4-yl)piperidin-4-yl)isoquinolin-3-yl)-6-oxaspiro[2.5]octane-1-carboxamide], the IC50 is 6.46 nM.
On to `O=C(Nc1cc2cc(C3CCN(C4COCC4O)CC3)c(Cl)cc2cn1)C1CC1` (single isomer, unassigned) [Ex-12.3, N-(7-chloro-6-(1-(4-hydroxytetrahydrofuran-3-yl)piperidin-4-yl)isoquinolin-3-yl)cyclopropanecarboxamide], for which the IC50 was 1.17 nM.
The figure for `O=C(Nc1cc2cc(C3CCN(C4COCC4O)CC3)c(Cl)cc2cn1)C1CC1` (single isomer, unassigned) [Ex-12.4, N-(7-chloro-6-(1-(4-hydroxytetrahydrofuran-3-yl)piperidin-4-yl)isoquinolin-3-yl)cyclopropanecarboxamide] is 66.1 nM.
The figure for `O=C(Nc1cc2cc(C3CCN(C4COCC4O)CC3)c(Cl)cc2cn1)C1CC1` (single isomer, unassigned) [Ex-12.5, N-(7-chloro-6-(1-(4-hydroxytetrahydrofuran-3-yl)piperidin-4-yl)isoquinolin-3-yl)cyclopropanecarboxamide] is 2.88 nM.
Consider `Cn1cc(C(=O)Nc2cc3cc(C4CCN([C@]5(C)COC[C@@H]5O)CC4)c(Cl)cc3cn2)cn1` (single isomer, unassigned) [Ex-12.6, N-(7-chloro-6-(1-(4-hydroxy-3-methyltetrahydrofuran-3-yl)piperidin-4-yl)isoquinolin-3-yl)-1-methyl-1H-pyrazole-4-carboxamide], for which the IC50 was 0.776 nM.
The same measure for `Cn1cc(C(=O)Nc2cc3cc(C4CCN([C@]5(C)COC[C@@H]5O)CC4)c(Cl)cc3cn2)cn1` (single isomer, unassigned) [Ex-12.7, N-(7-chloro-6-(1-(4-hydroxy-3-methyltetrahydrofuran-3-yl)piperidin-4-yl)isoquinolin-3-yl)-1-methyl-1H-pyrazole-4-carboxamide]: 21.9 nM; for `Cn1cc(C(=O)Nc2cc3cc(C4CCN([C@]5(C)COC[C@@H]5O)CC4)c(Cl)cc3cn2)cn1` (single isomer, unassigned) [Ex-12.8, N-(7-chloro-6-(1-(4-hydroxy-3-methyltetrahydrofuran-3-yl)piperidin-4-yl)isoquinolin-3-yl)-1-methyl-1H-pyrazole-4-carboxamide]: 316 nM.
The figure for `Cn1cc(C(=O)Nc2cc3cc(C4CCN([C@]5(C)COC[C@@H]5O)CC4)c(Cl)cc3cn2)cn1` (single isomer, unassigned) [Ex-12.9, N-(7-chloro-6-(1-(4-hydroxy-3-methyltetrahydrofuran-3-yl)piperidin-4-yl)isoquinolin-3-yl)-1-methyl-1H-pyrazole-4-carboxamide] is 141 nM.
The same measure for `Cc1cc2cnc(NC(=O)C3CC3c3ccccn3)cc2cc1C1CCN(C2(C)COCC2F)CC1` (single isomer, unassigned) [Ex-13.1, (1R,2R or 1S,2S)-N-(6-(1-((3R,4R or 3S,4S)-4-fluoro-3-methyltetrahydrofuran-3-yl)piperidin-4-yl)-7-methylisoquinolin-3-yl)-2-(pyridin-2-yl)cyclopropane-1-carboxamide]: 2.51 nM; for `Cc1cc2cnc(NC(=O)C3CC3c3ccccn3)cc2cc1C1CCN(C2(C)COCC2F)CC1` (single isomer, unassigned) [Ex-13.2, (1R,2R or 1S,2S)-N-(6-(1-((3R,4R or 3S,4S)-4-fluoro-3-methyltetrahydrofuran-3-yl)piperidin-4-yl)-7-methylisoquinolin-3-yl)-2-(pyridin-2-yl)cyclopropane-1-carboxamide]: 38.9 nM; for `Cc1cc2cnc(NC(=O)C3CC3c3ccccn3)cc2cc1C1CCN(C2(C)COCC2F)CC1` (single isomer, unassigned) [Ex-13.3, (1R,2R or 1S,2S)-N-(6-(1-((3R,4R or 3S,4S)-4-fluoro-3-methyltetrahydrofuran-3-yl)piperidin-4-yl)-7-methylisoquinolin-3-yl)-2-(pyridin-2-yl)cyclopropane-1-carboxamide]: 0.501 nM.
Consider `Cc1cc2cnc(NC(=O)C3CC3c3ccccn3)cc2cc1C1CCN(C2(C)COCC2F)CC1` (single isomer, unassigned) [Ex-13.4, (1R,2R or 1S,2S)-N-(6-(1-((3R,4R or 3S,4S)-4-fluoro-3-methyltetrahydrofuran-3-yl)piperidin-4-yl)-7-methylisoquinolin-3-yl)-2-(pyridin-2-yl)cyclopropane-1-carboxamide], for which the IC50 was 21.9 nM.
The same measure for `O=C(Nc1cc2cc(C3CCN(C4COC4)CC3F)c(Cl)cc2cn1)C1CC1` (single isomer, unassigned) [Ex-14.1, N-(7-chloro-6-((3R,4R,3S,4R,3R,4S or 3S,4S)-3-fluoro-1-(oxetan-3-yl)piperidin-4-yl)isoquinolin-3-yl)cyclopropanecarboxamide]: 5.89 nM.
The figure for `O=C(Nc1cc2cc(C3CCN(C4COC4)CC3F)c(Cl)cc2cn1)C1CC1` (single isomer, unassigned) [Ex-14.2, N-(7-chloro-6-((3R,4R,3S,4R,3R,4S or 3S,4S)-3-fluoro-1-(oxetan-3-yl)piperidin-4-yl)isoquinolin-3-yl)cyclopropanecarboxamide] is 4.07 nM.
`CC1(N2CCC(c3cc4cc(NC(=O)C5CC56CCOCC6)ncc4cc3Cl)C(F)C2)COCC1O` (single isomer, unassigned) [Ex-14.4, N-(7-chloro-6-(3-fluoro-1-(4-hydroxy-3-methyltetrahydrofuran-3-yl)piperidin-4-yl)isoquinolin-3-yl)-6-oxaspiro[2.5]octane-1-carboxamide]: the IC50 was 0.186 nM.
The figure for `CC1(N2CCC(c3cc4cc(NC(=O)C5CC56CCOCC6)ncc4cc3Cl)C(F)C2)COCC1O` (single isomer, unassigned) [Ex-14.5, N-(7-chloro-6-(3-fluoro-1-(4-hydroxy-3-methyltetrahydrofuran-3-yl)piperidin-4-yl)isoquinolin-3-yl)-6-oxaspiro[2.5]octane-1-carboxamide] is 1.58 nM.
The figure for `CC1(N2CCC(c3cc4cc(NC(=O)C5CC56CCOCC6)ncc4cc3Cl)C(F)C2)COCC1O` (single isomer, unassigned) [Ex-14.6, N-(7-chloro-6-(3-fluoro-1-(4-hydroxy-3-methyltetrahydrofuran-3-yl)piperidin-4-yl)isoquinolin-3-yl)-6-oxaspiro[2.5]octane-1-carboxamide] is 2.57 nM.
The same measure for `Cc1cc2cnc(NC(=O)C3CC4(CC4)C3)cc2cc1C1CCN(C2(C)COCC2O)CC1` (single isomer, unassigned) [Ex-15.2, N-(6-(1-(4-hydroxy-3-methyltetrahydrofuran-3-yl)piperidin-4-yl)-7-methylisoquinolin-3-yl)spiro[2.3]hexane-5-carboxamide]: 0.302 nM; for `Cc1cc2cnc(NC(=O)C3CC34CCOCC4)cc2cc1C1CCN(C2(C)COCC2C)CC1` (single isomer, unassigned) [Ex-15.3, N-(6-(1-(3,4-dimethyltetrahydrofuran-3-yl)piperidin-4-yl)-7-methylisoquinolin-3-yl)-6-oxaspiro[2.5]octane-1-carboxamide]: 47.9 nM.
For the molecule `Cc1cc2cnc(NC(=O)C3CC34CCOCC4)cc2cc1C1CCN(C2(C)COCC2C)CC1` (single isomer, unassigned) [Ex-15.4, N-(6-(1-(3,4-dimethyltetrahydrofuran-3-yl)piperidin-4-yl)-7-methylisoquinolin-3-yl)-6-oxaspiro[2.5]octane-1-carboxamide], the IC50 is 0.0813 nM.
As to `Cc1cc2cnc(NC(=O)C3CC3C(C)(C)F)cc2cc1C1CCN(C2(C)COCC2O)CC1` (single isomer, unassigned) [Ex-15.5, 2-(2-fluoropropan-2-yl)-N-(6-(1-(4-hydroxy-3-methyltetrahydrofuran-3-yl)piperidin-4-yl)-7-methylisoquinolin-3-yl)cyclopropane-1-carboxamide], the IC50 is 21.4 nM.
The same measure for `Cc1cc2cnc(NC(=O)C3CC3C(C)(C)F)cc2cc1C1CCN(C2(C)COCC2O)CC1` (single isomer, unassigned) [Ex-15.6, 2-(2-fluoropropan-2-yl)-N-(6-(1-(4-hydroxy-3-methyltetrahydrofuran-3-yl)piperidin-4-yl)-7-methylisoquinolin-3-yl)cyclopropane-1-carboxamide]: 0.501 nM; for `Cc1cc2cnc(NC(=O)C3CC34CCOC4)cc2cc1C1CCN(C2(C)COCC2F)CC1` (single isomer, unassigned) [Ex-15.7, N-(6-(1-(4-fluoro-3-methyltetrahydrofuran-3-yl)piperidin-4-yl)-7-methylisoquinolin-3-yl)-5-oxaspiro[2.4]heptane-1-carboxamide]: 1.23 nM; for `Cc1cc2cnc(NC(=O)C3CC34CCOC4)cc2cc1C1CCN(C2(C)COCC2F)CC1` (single isomer, unassigned) [Ex-15.8, N-(6-(1-(4-fluoro-3-methyltetrahydrofuran-3-yl)piperidin-4-yl)-7-methylisoquinolin-3-yl)-5-oxaspiro[2.4]heptane-1-carboxamide]: 219 nM.
With `Cc1cc2cnc(NC(=O)C3CC34CCOC4)cc2cc1C1CCN(C2(C)COCC2F)CC1` (single isomer, unassigned) [Ex-15.9, N-(6-(1-(4-fluoro-3-methyltetrahydrofuran-3-yl)piperidin-4-yl)-7-methylisoquinolin-3-yl)-5-oxaspiro[2.4]heptane-1-carboxamide], the IC50 is 2.4 nM.
The figure for `Cc1cc2cnc(NC(=O)C3CC34CCOC4)cc2cc1C1CCN(C2(C)COCC2F)CC1` (single isomer, unassigned) [Ex-15.10, N-(6-(1-(4-fluoro-3-methyltetrahydrofuran-3-yl)piperidin-4-yl)-7-methylisoquinolin-3-yl)-5-oxaspiro[2.4]heptane-1-carboxamide] is 2 nM.
On to `Cc1cc2cnc(NC(=O)C3CC34CCOC4)cc2cc1C1CCN(C2(C)COCC2F)CC1` (single isomer, unassigned) [Ex-15.11, N-(6-(1-(4-fluoro-3-methyltetrahydrofuran-3-yl)piperidin-4-yl)-7-methylisoquinolin-3-yl)-5-oxaspiro[2.4]heptane-1-carboxamide], for which the IC50 is 70.8 nM.
